Data on 91 molecules can be found in PubChem BioAssay AID434954 (Broad Institute, 2010).

The source made the active and inactive calls.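 The calls were made as follows: active = IC50 at or below a set limit above the highest tested dose; inconclusive = flat curve with 30 to 70% inhibition, or poor fit; inactive = the rest.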

Glycogen synthase kinase-3 beta (Homo sapiens), sequence (P49841 whole entry, looked up): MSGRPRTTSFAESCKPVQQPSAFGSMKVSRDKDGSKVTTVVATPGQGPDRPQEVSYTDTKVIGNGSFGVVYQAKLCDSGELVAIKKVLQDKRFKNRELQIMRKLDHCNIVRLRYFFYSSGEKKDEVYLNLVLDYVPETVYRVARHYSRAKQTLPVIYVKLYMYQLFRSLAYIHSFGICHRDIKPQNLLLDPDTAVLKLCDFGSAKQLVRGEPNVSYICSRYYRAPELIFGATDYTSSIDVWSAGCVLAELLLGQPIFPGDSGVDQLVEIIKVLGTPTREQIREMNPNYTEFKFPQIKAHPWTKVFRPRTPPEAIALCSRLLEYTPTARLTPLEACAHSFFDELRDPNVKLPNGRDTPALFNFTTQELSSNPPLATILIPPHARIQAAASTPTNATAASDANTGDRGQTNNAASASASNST

The assay has as its target Glycogen synthase kinase-3 beta (Homo sapiens) (UniProt P49841). Kind of assay: GSK3beta kinase inhibitor potency, dose response, biochemical, luminescence, cell-free homogeneous, retest (AID 434954). The conditions noted are these: recombinant GSK3beta, ADP-Glo luminescence, 60 min.
As to `Cc1c(C#N)c(O)[nH]c(=O)c1N=Nc1ccc(Br)cc1C(=O)O`, the IC50 is > 30 µM (inactive). For the molecule `CSc1nc2c(c(=O)[nH]1)C(c1ccccc1)C1=C(CC(C)(C)CC1=O)N2` (stereo unspecified), the IC50 is > 30 µM (inactive). `CC[n+]1c(/C=C/Nc2ccccc2)sc2ccccc21`: the IC50 is > 30 µM (inactive). For `Oc1ccc(/C=N/Nc2ccc(C(F)(F)F)cn2)cc1O`, the concentration for half-maximal inhibition (IC50) was 16.1 µM. The value for `Cc1ccccc1/C=N/Nc1ncnc2nc[nH]c12` was 17.1 µM. Turning to `O/N=C/c1cn(-c2ccccc2)nc1-c1ccccc1`, the half-maximal inhibitory concentration (IC50) is 26 µM. Consider `CC1=C(C(N)=O)C(c2sccc2C)n2nnnc2N1` (stereo unspecified), for which the IC50 was > 30 µM (inactive). Regarding `COc1cc(CN=Cc2c(O)n(C(C)(C)C)c(=O)[nH]c2=O)cc(OC)c1`, the IC50 was > 30 µM (inactive). Consider `CC1=C(C(=O)Nc2ccccc2F)C(c2cccs2)C2=C(CCCC2=O)N1` (stereo unspecified), for which the IC50 was > 30 µM (inactive). The value for `CCOC(=O)C1=C(C)Nc2ncnn2C1c1cccnc1` (stereo unspecified) was > 30 µM (inactive); that for `COC(=O)c1ccc(N2C(=O)CC(N3CCN(C(=O)c4ccco4)CC3)C2=O)cc1` (stereo unspecified) was > 30 µM (inactive). In the case of `C(=N\Nc1ncnc2nc[nH]c12)/c1cccs1` it was 19.7 µM; in that of `Oc1ccc(/C=N/Nc2ncnc3nc[nH]c23)cc1`, > 30 µM (inactive); in that of `Cc1cc(=O)[nH]c(N/N=C/c2ccc(-c3ccc([N+](=O)[O-])cc3)o2)n1`, > 30 µM (inactive).

Take `CSc1nc2n(n1)C(c1cccs1)C1=C(CCCC1=O)N2` (stereo unspecified): the IC50 is > 30 µM (inactive). For `O=C(O)c1cc(N/N=C/c2ccc(-c3ccc(F)cc3)o2)ccc1Cl`, the IC50 was > 30 µM (inactive). The value for `Cc1ccsc1/C=N/Nc1ncnc2nc[nH]c12` was 9 µM. As for `NS(=O)(=O)c1ccc(N=Nc2c(O)[nH]c3ccc(Br)cc23)cc1`, the IC50 is > 30 µM (inactive). In the case of `O=C1CCCC2=C1C(c1cccs1)n1nc(SCc3ccccc3)nc1N2` (stereo unspecified) it was > 30 µM (inactive). For `CCOC(=O)/C(C(=O)Nc1ccc(Cl)cc1Cl)=C1/NC(C)(C)Cc2ccccc21`, the IC50 was > 30 µM (inactive). Regarding `CCOC(=O)c1sc2c(c1C)C(c1cccs1)C1=C(CCCC1=O)N2` (stereo unspecified), the IC50 was > 30 µM (inactive). Take `N=C(N)N=Nc1c(O)[nH]c2ccc(Br)cc12`: the IC50 was 31.4 µM. Turning to `O=C(O)c1ccc(N=Nc2c(O)[nH]c3cc(Cl)ccc23)cc1`, the IC50 was 19.1 µM. As to `COc1cc(/C=N/Nc2ccc(C(F)(F)F)cn2)ccc1O`, the half-inhibitory concentration (IC50) is 10.1 µM. In the case of `COc1ccc(-c2nn(-c3ccccc3)cc2/C=N/Nc2ccccn2)cc1`, the IC50 is > 30 µM (inactive).

For the molecule `C/C(=N\Nc1nccnc1Cl)c1ccc(Br)cc1`, the IC50 was > 30 µM (inactive). The value for `Cc1nn(-c2ccccn2)c2c1C(c1ccsc1)C1=C(CCCC1=O)N2` (stereo unspecified) was > 30 µM (inactive); that for `Cc1cccc(N=Nc2c(C)c(C#N)c(O)[nH]c2=O)c1` was 0.775 µM; that for `O=C(NCCCN1CCCC1=O)c1c(O)nc2sccn2c1=O` was > 30 µM (inactive). The value for `COc1cc(/C=N/O)ccc1OCc1ccccc1Cl` was > 30 µM (inactive); that for `COc1ccc(-c2nn(-c3ccccc3)cc2/C=N/Nc2ccc3ccccc3n2)cc1OC` was > 30 µM (inactive); that for `CCN(CC)S(=O)(=O)c1cccc(N2CC(O)=C(c3ccccc3)C2=N)c1` was > 30 µM (inactive). As to `COc1cc(/C=N/Nc2nc(Nc3ccccc3)nc(N3CCCCC3)n2)ccc1OCC(=O)O`, the IC50 is > 30 µM (inactive).

Regarding `O=C(O)Cn1cc(/C=N/Nc2ccc([N+](=O)[O-])cn2)c2ccccc21`, the half-maximal inhibitory concentration (IC50) is 8.24 µM. The value for `Oc1ccccc1/C=N/Nc1nn[nH]n1` was > 30 µM (inactive); that for `CN=C(C)/C(C(=O)OC)=C(/O)c1ccc(Cl)cc1Cl` was > 30 µM (inactive); that for `COc1cc(C2C(C#N)=C(C)NC3=C2C(=O)CC(C)(C)C3)ccc1O` (stereo unspecified) was > 30 µM (inactive). `COc1ccc(OC)c(N=c2oc3cc(O)ccc3cc2C(N)=O)c1`: the IC50 was 11.9 µM.

`O=C1CCCC2=C1C(c1cccs1)n1ncnc1N2` (stereo unspecified): the IC50 is > 30 µM (inactive). On to `COc1ccc(-c2nn(CCC#N)cc2/C=N/O)cc1OC`, for which the IC50 was > 30 µM (inactive).

With `O=C1CC(SC(=Nc2ccccc2)Nc2ccccc2)C(=O)N1c1cccc2ccccc12` (stereo unspecified), the IC50 is > 30 µM (inactive). The value for `O=C1CCCC2=C1C(c1cccs1)Nc1ccccc1N2` (stereo unspecified) was > 30 µM (inactive); that for `Cc1[nH]nc2c1C(c1cccc(O)c1)C1=C(CC(C)(C)CC1=O)N2` (stereo unspecified) was 0.421 µM; that for `Nc1ncnc2c1ncn2[C@@H]1O[C@H](CO)[C@@H](O)[C@H]1O` was > 30 µM (inactive).

Regarding `CCc1ccccc1N1C(=O)CC(N2CCc3ccccc32)C1=O` (stereo unspecified), the IC50 was > 30 µM (inactive). Regarding `CC1(C)CC(=O)C2=C(C1)Nc1ccccc1NC2c1ccc(F)cc1` (stereo unspecified), the IC50 is > 30 µM (inactive). With `CCCCOC(=O)C1=C(C)Nc2ncnn2C1c1cc(OC)c(OC)cc1OC` (stereo unspecified), the IC50 was > 30 µM (inactive).

In the case of `Nc1ncnc2c1ncn2[C@@H]1O[C@H](CO)[C@@H](O)[C@@H]1O`, the IC50 was > 30 µM (inactive). In the case of `C=CCOc1ccc(/C=N/Nc2ccccn2)cc1OC` it was > 30 µM (inactive). In the case of `N#CC(C#N)=C1NC(N)=C(C#N)C(c2ccccc2)=C1C#N`, the half-maximal inhibitory concentration (IC50) is 19.2 µM. As to `CC1=C(C(=O)OCc2ccccc2)C(c2ccccc2OC(F)F)NC(=O)N1` (stereo unspecified), the IC50 was 4.4 µM.

For the molecule `COc1cccc(C2C(C(=O)OCc3ccccc3)=C(C)Nc3ncnn32)c1OC` (stereo unspecified), the concentration for half-maximal inhibition (IC50) is 3.82 µM. Take `O=C1CC(c2c[nH]c3ccccc23)C(=O)N1c1ccccc1` (stereo unspecified): the IC50 is > 30 µM (inactive). In the case of `Cc1[nH]nc2c1C(c1ccc(F)cc1)C1=C(CC(C)(C)CC1=O)N2` (stereo unspecified) it was 3.93 µM.

Take `COc1ccc(C2C3=C(CC(C)(C)CC3=O)Nc3n[nH]c(C)c32)cc1` (stereo unspecified): the 50% inhibitory concentration (IC50) was 28.3 µM.

On to `COc1cc(/C=N\Nc2ccc([N+](=O)[O-])cc2)ccc1OCC(=O)Nc1ccc(C)c(C)c1`, for which the IC50 was > 30 µM (inactive). In the case of `COc1cccc(/C=N/Nc2cc(Cl)nc(C)n2)c1O` it was > 30 µM (inactive). Consider `COc1ccc(/C=N/Nc2ccc([N+](=O)[O-])cc2)cc1O`, for which the IC50 was > 30 µM (inactive). With `COc1cc(-c2[nH]nc3c2C(c2ccco2)C(C#N)=C(N)O3)cc(OC)c1OC` (stereo unspecified), the IC50 was 8.59 µM. For `CCCC1=C(C(=O)OCC)C(c2cccs2)n2ncnc2N1` (stereo unspecified), the IC50 was 23.2 µM. Take `CCOc1ccc(N2C(=O)C(Cl)=C(Nc3ccccc3O)C2=O)cc1`: the IC50 was > 30 µM (inactive). In the case of `O=C(N/N=C/c1ccc(O)c(O)c1)N/N=C/c1ccc(O)c(O)c1`, the half-inhibitory concentration (IC50) was 13.3 µM. Take `CC(C)Sc1nc2c(c(=O)[nH]1)C(c1cccs1)C1=C(CC(C)(C)CC1=O)N2` (stereo unspecified): the IC50 was > 30 µM (inactive). In the case of `Cc1ccc2c(c1)NC(c1cccs1)C1=C(CC(C)(C)CC1=O)N2` (stereo unspecified) it was > 30 µM (inactive); in that of `Cc1noc2c1C(c1ccc(N(C)C)cc1)C1=C(CC(C)(C)CC1=O)N2` (stereo unspecified), > 30 µM (inactive); in that of `CC1=C(C(=O)OC(C)C)C(c2c[nH]c3ccccc23)n2ncnc2N1` (stereo unspecified), 1.81 µM.

As for `CCOC(=O)C1=C(C)Nc2ncnn2C1c1c[nH]c2ccccc12` (stereo unspecified), the half-maximal inhibitory concentration (IC50) is 4.64 µM.

On to `Clc1ccc(/C=N/Nc2ncnc3nc[nH]c23)cc1`, for which the IC50 is 20.4 µM. In the case of `Cc1ccc(C2C3=C(CC(C)(C)CC3=O)Nc3[nH]c(=S)[nH]c(=O)c32)cc1` (stereo unspecified) it was > 30 µM (inactive); in that of `Cc1[nH]nc2c1C(c1cccs1)C1=C(CC(C)(C)CC1=O)N2` (stereo unspecified), 1.36 µM. The value for `O=C(O)CCn1cc(/C=N/O)c(-c2cccc([N+](=O)[O-])c2)n1` was 7.38 µM; that for `Nc1nc(F)nc2c1ncn2[C@@H]1O[C@H](CO)[C@@H](O)[C@H]1O` was > 30 µM (inactive); that for `CC(C)n1c(O)c(C=NCc2cccnc2)c(=O)[nH]c1=S` was > 30 µM (inactive). As to `COc1cc(C2C3=C(CC(C)(C)CC3=O)Nc3c2c(=O)[nH]c(=O)n3Cc2ccccc2)ccc1O` (stereo unspecified), the IC50 was > 30 µM (inactive). Turning to `CSc1nc2c(c(=O)[nH]1)C(c1cccs1)C1=C(CCCC1=O)N2` (stereo unspecified), the IC50 was > 30 µM (inactive). In the case of `CCOC(=O)C1=C(C)Nc2ncnn2C1c1ccc2c(c1)OCO2` (stereo unspecified) it was > 30 µM (inactive); in that of `CSc1nsc(/C=C/Nc2ccc(Cl)cc2)c1C#N`, > 30 µM (inactive); in that of `COc1cc(C2C(C(=O)c3cccs3)=C(O)C(=O)N2CCN2CCOCC2)ccc1OCCC(C)C` (stereo unspecified), > 30 µM (inactive). Regarding `COc1cc(/C=N/NC(=O)c2ccc(O)cc2)ccc1Oc1ccc([N+](=O)[O-])cn1`, the IC50 was > 30 µM (inactive). Consider `COc1ccc(C2C3=C(CCCC3=O)Nc3n[nH]c(C)c32)cc1OC` (stereo unspecified), for which the IC50 was > 30 µM (inactive).

`N#Cc1c(N)nc2c3c(sc(=N)c2c1N)NC(=O)CC3c1ccccc1` (stereo unspecified): the IC50 is > 30 µM (inactive). For the molecule `COc1cccc(C2C(C#N)=C(C)NC3=C2C(=O)CC(C)(C)C3)c1` (stereo unspecified), the IC50 is > 30 µM (inactive). On to `O=c1[nH]c(=O)n(CCc2ccc(F)cc2)c(O)c1/C=N/N1CCCCC1`, for which the IC50 is > 30 µM (inactive). Take `CCOc1cc(C2C(C(=O)N3CCCCC3)=C(C)NC3=C2C(=O)CC(C)(C)C3)ccc1O` (stereo unspecified): the IC50 was > 30 µM (inactive). Regarding `Cc1[nH]nc2c1C(c1cccs1)C1=C(CCCC1=O)N2` (stereo unspecified), the IC50 is 10.6 µM. Turning to `CCOC(=O)C1=C(C(F)(F)F)Nc2ncnn2C1c1cc(OC)ccc1OC` (stereo unspecified), the IC50 was > 30 µM (inactive). Regarding `C/C(=N\O)c1ncc(C(F)(F)F)cc1Cl`, the IC50 was > 30 µM (inactive). In the case of `CC1=C(C(=O)N2CCCCC2)C(c2cccs2)C2=C(CCCC2=O)N1` (stereo unspecified) it was > 30 µM (inactive).

As for `CC1(C)CC(=O)C2=C(C1)Nc1ccccc1NC2c1cccs1` (stereo unspecified), the IC50 is > 30 µM (inactive). Consider `CC1=C(C(=O)OCc2ccccc2)C(c2cccnc2)n2ncnc2N1` (stereo unspecified), for which the half-maximal inhibitory concentration (IC50) is 28 µM. For `CCc1ccc(C2NC(=S)NC3=C2C(=O)CC(C)(C)C3)cc1` (stereo unspecified), the IC50 is > 30 µM (inactive).
